Measured values reported in patent US11091490B2, “3-amino-1,5-dihydro-pyrazolo[3,4-d]pyrimidin-4-ones as cyclin dependent kinase inhibitors” (Oncotyrol Center for Personalized Cancer Medicine GMBH, priority 2016, dated 2021).
Where two headings read alike, the source gives them in different places.

What was measured:
A375 melanoma cells [1] = experiment: Cell cycle analysis (propidium iodide FACS) A375; assay type: cell-based
Excerpt: (§1) In order to investigate the mode of action (MOA) related to the antitumor activity of the compounds of the present invention (in particular compound 86) in solid tumors and multiple myeloma, two experimental strategies were used to confirm the postulated MOA: 1) monitoring of apoptosis induction and 2) cell cycle analysis upon treatment with compound 86. Three cancer cell lines (LP-1, (multiple myeloma cells, DSMZ ACC 41), A375 (melanoma cells), and HeLa (cervix carcinoma cells)) as well as control cells (HS-5 bone marrow stroma cells, ATCC CRL-11882) were used to obtain mechanistic insight into the antitumor activity of compound 86.
(§2) Measuring of DNA content in cells is a well-established method for monitoring cell proliferation, cell cycle, fragmentation of nuclei (apoptosis) and DNA ploidy. Proliferating cells progress through various phases of the cell cycle (G0, G1, S, G2, and M phase). At different stages of the cell cycle and life cycle, cell nuclei contain different amounts of DNA. The DNA content in cell nuclei was analyzed by propidium iodide (PI) staining and FACS analysis after 12 and 24 h of treatment with 100 nM of compound 86 in accordance with the method of Desai Brijal M. et. al. PLOS Vol. 8; Issue 3; p. 1-11, 2013.

[2] = test system: HeLa cervix carcinoma cells; experiment: PARP cleavage Western blot HeLa; assay type: cell-based; conditions: 24 h, 100 nM, FIG. 1B legend 0.08 μM
Excerpt: as §1
(§3) Annexin V staining and Poly(ADP-ribose)-Polymerase 1 (PARP) protein cleavage was analyzed to identify a pro-apoptotic effect of compound 86 on tumor cells in accordance with the method of Koopman G, et. al. Blood 1994; 1; 84(5):1415-20. Annexin V allows the identification of cell surface changes that occur early during the apoptotic process by in situ detection, which is ideal for the analysis with adherent cells. Cleavage of PARP-1 by caspases is considered to be a hallmark of apoptosis and was therefore applied to monitor apoptosis induction after 24 h of treatment with 100 nM of compound 86.

CDK16 = biological target: T1, CDK16 (Homo sapiens, UniProt Q00536); experiment: Target selectivity profile (DiscoverX KinomeScan) CDK16; assay type: binding
T1 construct: purchased DiscoverX
T1 sequence (Q00536 whole entry): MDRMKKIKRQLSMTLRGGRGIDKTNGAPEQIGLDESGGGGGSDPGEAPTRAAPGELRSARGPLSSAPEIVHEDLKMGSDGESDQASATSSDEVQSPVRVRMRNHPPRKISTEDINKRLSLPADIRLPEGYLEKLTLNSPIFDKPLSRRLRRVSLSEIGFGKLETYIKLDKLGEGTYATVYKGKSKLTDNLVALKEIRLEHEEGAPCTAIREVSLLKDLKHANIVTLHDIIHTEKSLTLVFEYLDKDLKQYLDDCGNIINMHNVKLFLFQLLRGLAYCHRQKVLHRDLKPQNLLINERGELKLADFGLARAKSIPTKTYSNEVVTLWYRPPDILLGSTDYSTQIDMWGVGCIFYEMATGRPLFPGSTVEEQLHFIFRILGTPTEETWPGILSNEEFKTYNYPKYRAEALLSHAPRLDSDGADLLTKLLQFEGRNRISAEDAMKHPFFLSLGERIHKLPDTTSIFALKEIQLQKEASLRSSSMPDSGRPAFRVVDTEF
Excerpt: (§4) 3. Target Selectivity Profile (DiscoverX KinomeScan)
(§5) According to an analysis of kinase inhibitory selectivity carried out in accordance with Karaman M W et al., Nat Biotechnol. 2008 January; 26(1):127-32. doi: 10.1038/nbt1358.

COLO205 (colon) = experiment: In vitro proliferation screening (Sulforhodamin B) COLO205; assay type: cell-based, human; conditions: COLO205, 72 h, unit M
Excerpt: (§6) In order to evaluate the antitumor activity of the compounds of the present invention, in particular compound 86, in solid tumors, an in vitro proliferation screening in a panel of 10 different human cancer cell lines derived from solid tumors (see Table 5, below) as a model system.
(§7) Six 10-fold dilutions of compound 86 have been prepared in DMSO, from 5×10^−9 M to 5×10^−4. Single data points have been tested for each concentration. The final concentration of DMSO was 0.1%. The duration of the treatment was 72 hours. The growth inhibition was measured by using Sulforhodamin B, a protein-staining assay in accordance with Vichai V et. al. Nat. Protoc. 2006; 1(3):1112-6. Activity of the agents was determined by evaluating the following parameters: IC50, GI50, IC10, GI10, TGI, LC50, IC90 and GI90 (if these values could be calculated).

[3] = test system: HS-5 bone marrow stroma cells (control); experiment: Annexin V/PI staining HS-5; assay type: cell-based; conditions: HS-5 control cells, 0.1 μM, 12 h and 24 h
Excerpt: as §1, §3

[4] = biological target: human ether-a-go-go-related gene (hERG)-encoded K+ channel (Homo sapiens, UniProt Q12809); experiment: Medium-throughput electrophysiology based hERG assay; assay type: cell-based
human ether-a-go-go-related gene (hERG)-encoded K+ channel, sequence (Q12809 whole entry): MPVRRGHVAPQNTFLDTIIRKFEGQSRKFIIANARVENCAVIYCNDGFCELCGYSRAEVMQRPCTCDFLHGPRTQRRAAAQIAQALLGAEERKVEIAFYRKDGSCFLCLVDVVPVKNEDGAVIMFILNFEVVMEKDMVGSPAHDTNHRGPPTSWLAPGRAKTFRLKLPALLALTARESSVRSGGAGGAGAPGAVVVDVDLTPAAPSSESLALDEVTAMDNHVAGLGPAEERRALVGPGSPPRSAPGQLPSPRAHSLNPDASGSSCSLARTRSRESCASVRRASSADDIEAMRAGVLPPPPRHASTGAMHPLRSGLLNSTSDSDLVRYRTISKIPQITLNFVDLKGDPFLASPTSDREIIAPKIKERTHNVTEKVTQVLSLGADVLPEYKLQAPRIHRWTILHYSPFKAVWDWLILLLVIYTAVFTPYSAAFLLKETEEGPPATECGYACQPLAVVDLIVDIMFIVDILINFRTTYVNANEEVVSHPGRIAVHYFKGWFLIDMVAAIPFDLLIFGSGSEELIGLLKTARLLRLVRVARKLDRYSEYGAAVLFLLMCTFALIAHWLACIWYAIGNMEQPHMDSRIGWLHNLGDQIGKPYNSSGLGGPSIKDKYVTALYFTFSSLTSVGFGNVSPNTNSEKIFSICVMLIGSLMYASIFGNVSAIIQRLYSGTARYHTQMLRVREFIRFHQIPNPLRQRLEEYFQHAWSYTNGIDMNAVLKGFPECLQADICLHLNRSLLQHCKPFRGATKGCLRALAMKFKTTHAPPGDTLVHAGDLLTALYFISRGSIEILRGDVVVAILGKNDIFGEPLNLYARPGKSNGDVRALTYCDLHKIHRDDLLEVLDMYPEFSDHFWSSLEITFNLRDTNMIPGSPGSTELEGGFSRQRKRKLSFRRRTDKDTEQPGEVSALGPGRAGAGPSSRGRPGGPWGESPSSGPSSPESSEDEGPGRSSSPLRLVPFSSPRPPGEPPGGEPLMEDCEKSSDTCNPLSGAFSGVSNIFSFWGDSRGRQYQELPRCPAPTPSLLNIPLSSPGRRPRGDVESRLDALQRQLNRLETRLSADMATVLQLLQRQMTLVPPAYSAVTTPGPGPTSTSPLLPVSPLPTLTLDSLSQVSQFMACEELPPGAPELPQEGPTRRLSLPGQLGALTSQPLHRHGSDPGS
Excerpt: In a medium-throughput electrophysiology based hERG assay carried out in accordance with Bridgland-Taylor M H et al., J Pharmacol Toxicol Methods. 2006 September-October; 54(2):189-99. Epub 2006 Mar. 6.

HCT116 (colon) = experiment: In vitro proliferation screening (Sulforhodamin B) HCT116; assay type: cell-based, human; conditions: HCT116, 72 h
Excerpt: as §6, §7

CDK7 = biological target: T2, CDK7 (Homo sapiens, UniProt P50613); experiment: Target selectivity profile (DiscoverX KinomeScan) CDK7; assay type: binding
T2 construct: purchased DiscoverX
T2 sequence (P50613 whole entry): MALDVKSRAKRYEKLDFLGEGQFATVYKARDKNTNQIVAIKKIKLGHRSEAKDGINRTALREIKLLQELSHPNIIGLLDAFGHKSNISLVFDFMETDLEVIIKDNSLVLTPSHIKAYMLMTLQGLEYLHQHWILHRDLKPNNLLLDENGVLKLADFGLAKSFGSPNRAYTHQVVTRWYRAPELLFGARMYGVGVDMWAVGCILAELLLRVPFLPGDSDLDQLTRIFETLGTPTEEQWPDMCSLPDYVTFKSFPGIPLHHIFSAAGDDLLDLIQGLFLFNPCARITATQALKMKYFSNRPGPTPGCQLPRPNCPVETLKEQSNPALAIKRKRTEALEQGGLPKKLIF
Excerpt: as §4, §5

[5] = test system: HeLa cervix carcinoma cells; experiment: Cell cycle analysis (propidium iodide FACS) HeLa; assay type: cell-based
Excerpt: as §1, §2

UO31 (kidney) = experiment: In vitro proliferation screening (Sulforhodamin B) UO31; assay type: cell-based, human; conditions: UO31, 72 h
Excerpt: as §6, §7

A375 melanoma cells [6] = experiment: Annexin V/PI staining A375; assay type: cell-based; conditions: A375, 0.1 μM, 12 h and 24 h
Excerpt: as §1, §3

NCI-H929/GN2 = experiment: Multiple myeloma cells in mono- and co-culture with osteoblasts, imaging based detection (NCI-H929); assay type: cell-based
Experimental: Compound 86 has been compared with the key compound of WO 2000/21926 A2 (Example 121) in an imaging based detection system.
Two different multiple myeloma (MM) cell lines (RPMI-8226 (DSMZ, ACC 402), NCI-H929 DSMZ, ACC 163) have been used and were cultured in mono- and co-culture with osteoblasts (OB) (Osteoblasts were obtained by culturing hMSCs with a differentiation inducing medium for two weeks) in accordance with the method of Karadag A. et al. Journal of Bone and Mineral Research Vol. 15, No. 10, 2000 page 1935-43.

A375 melanoma cells [7] = experiment: PARP cleavage Western blot A375; assay type: cell-based; conditions: A375, 24 h, 100 nM, FIG. 1B legend 0.08 μM
Excerpt: as §1, §3

[8] = test system: LP-1 multiple myeloma cells; experiment: Cell cycle analysis (propidium iodide FACS) LP1; assay type: cell-based
Excerpt: as §1, §2

CDK13 = biological target: T3, CDK13 (Homo sapiens, UniProt Q14004); experiment: Target selectivity profile (DiscoverX KinomeScan) CDK13; assay type: binding
T3 construct: purchased DiscoverX
T3 sequence (Q14004 whole entry): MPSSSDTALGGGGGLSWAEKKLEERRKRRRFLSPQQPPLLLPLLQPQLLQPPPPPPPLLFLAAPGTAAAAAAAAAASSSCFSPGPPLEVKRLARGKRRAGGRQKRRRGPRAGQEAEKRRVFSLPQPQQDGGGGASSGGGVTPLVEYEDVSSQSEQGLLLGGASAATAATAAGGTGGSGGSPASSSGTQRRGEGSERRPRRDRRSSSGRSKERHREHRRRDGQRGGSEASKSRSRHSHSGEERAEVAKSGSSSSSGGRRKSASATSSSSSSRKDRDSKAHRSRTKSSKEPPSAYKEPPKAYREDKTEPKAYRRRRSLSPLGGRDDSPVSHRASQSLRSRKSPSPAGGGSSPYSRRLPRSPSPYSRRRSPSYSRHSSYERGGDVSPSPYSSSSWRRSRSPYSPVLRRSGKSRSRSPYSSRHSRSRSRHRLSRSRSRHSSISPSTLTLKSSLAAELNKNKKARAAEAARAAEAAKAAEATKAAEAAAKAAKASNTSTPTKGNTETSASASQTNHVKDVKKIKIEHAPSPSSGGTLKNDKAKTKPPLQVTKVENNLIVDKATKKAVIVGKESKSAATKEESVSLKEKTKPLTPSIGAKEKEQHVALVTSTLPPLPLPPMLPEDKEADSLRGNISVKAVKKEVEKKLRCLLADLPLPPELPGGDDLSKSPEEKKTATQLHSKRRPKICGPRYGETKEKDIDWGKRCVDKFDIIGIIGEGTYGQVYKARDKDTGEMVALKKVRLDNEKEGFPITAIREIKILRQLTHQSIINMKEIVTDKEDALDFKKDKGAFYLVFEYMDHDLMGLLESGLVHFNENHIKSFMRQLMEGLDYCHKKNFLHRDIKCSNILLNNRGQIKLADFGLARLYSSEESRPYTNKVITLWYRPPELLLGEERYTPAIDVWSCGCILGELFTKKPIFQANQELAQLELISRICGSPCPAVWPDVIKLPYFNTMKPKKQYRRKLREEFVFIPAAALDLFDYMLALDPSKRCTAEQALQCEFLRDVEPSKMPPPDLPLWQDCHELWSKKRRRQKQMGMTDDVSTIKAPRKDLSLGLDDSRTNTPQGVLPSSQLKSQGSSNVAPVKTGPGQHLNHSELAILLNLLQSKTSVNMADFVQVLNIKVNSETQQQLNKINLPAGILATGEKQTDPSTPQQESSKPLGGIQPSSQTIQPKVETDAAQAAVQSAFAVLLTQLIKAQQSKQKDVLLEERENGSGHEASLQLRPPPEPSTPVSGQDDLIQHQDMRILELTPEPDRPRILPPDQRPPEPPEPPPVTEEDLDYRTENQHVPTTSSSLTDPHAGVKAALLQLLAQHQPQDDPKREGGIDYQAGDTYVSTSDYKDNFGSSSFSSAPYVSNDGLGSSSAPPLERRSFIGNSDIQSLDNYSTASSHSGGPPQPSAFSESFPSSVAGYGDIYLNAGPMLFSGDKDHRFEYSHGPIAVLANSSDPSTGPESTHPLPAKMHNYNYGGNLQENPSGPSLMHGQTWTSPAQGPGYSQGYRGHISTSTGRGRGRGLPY
Excerpt: as §4, §5

CCN(CC)CC(=O)Nc1ccc(Cc2nc3c(c(N(C)C)nn3-c3c(Cl)cc(S(N)(=O)=O)cc3Cl)c(=O)[nH]2)cc1 [Compound 86, N-{4-[1-(2,6-Dichloro-4-sulfamoyl-phenyl)-3-dimethylamino-4-oxo-4,5-dihydro-1H-pyrazolo[3,4-d]pyrimidin-6-ylmethyl]-phenyl}-2-diethylamino-acetamide] was tested, and the “cell cycle profile (DNA content)” value (A375 melanoma cells [1]; A375, 0.1 μM, 12 and 24 h (FIG. 1A)) was “cell cycle defects and a progressive enrichment of the sub G1 group”, the “cell cycle profile (DNA content)” value (A375 melanoma cells [1]; A375, 100 nM, 12 h) was “G2/M arrest” and the “cell cycle profile (DNA content)” value (A375 melanoma cells [1]; A375, 100 nM, 24 h) was “started to enrich in the sub_G1 fraction”. For the same compound, the PARP cleavage [2] was “specific induction of PARP cleavage”, the PARP cleavage ([2]; listed as Otviciclib) was “induction of PARP cleavage” and the “kinase inhibitory selectivity: CDK16” value (CDK16) was “active as inhibitors”. It also gave a GI50 (COLO205 (colon)) of 20.9 nM, a GI50 (COLO205 (colon); Homo sapiens, COLO 205, 72 h) of 21 nM and an IC50 (COLO205 (colon); Homo sapiens, COLO 205) of 24.2 nM. The “induction of apoptosis (Annexin V/PI staining)” value (shortened to “induction of apoptosis”) [3] was “did not respond”, the “inhibitory activity on hERG K+ channel” value [4] was “did not display any inhibitory activity” and the GI50 (HCT116 (colon); unit M) was 5.82 nM. It also gave a GI50 (HCT116 (colon); Homo sapiens, HCT-116, 72 h, rounded value of the conclusions) of 5.8 nM, a GI50 (HCT116 (colon); Homo sapiens, HCT-116, 72 h, unit M) of 5.82 nM and an IC50 (HCT116 (colon); Homo sapiens, HCT-116, unit M) of 6.05 nM. The “kinase inhibitory selectivity: CDK7” value (CDK7) was “active as inhibitors”, the “cell cycle profile (DNA content)” value ([5]; 0.1 μM, 12 and 24 h (FIG. 1A)) was “cell cycle defects and a progressive enrichment of the sub G1 group” and the “cell cycle profile (DNA content)” value ([5]; 100 nM, 12 h) was “unaffected”. For the same compound, the “cell cycle profile (DNA content)” value ([5]; 100 nM, 24 h) was “clear response”, the GI50 (UO31 (kidney); Homo sapiens, UO-31, unit M) was 339 nM and the IC50 (UO31 (kidney); Homo sapiens, UO-31, unit M) was 360 nM. For the same compound, the “growth inhibitory response in words” value (UO31 (kidney)) was “responded rather weakly in the micromolar range”, the “induction of apoptosis” value (A375 melanoma cells [6]) was “specific induction of apoptosis” and the “induction of apoptosis” value (A375 melanoma cells [6]; listed as Otviciclib) was “reproducible induction of apoptosis”. For the same compound, the EC50 (NCI-H929/GN2; Homo sapiens, NCI-H929, NCI-H929/GN2, co-culture with osteoblasts, read-out: co-culture (+ OB) EC50) was 72 nM, the EC50 (NCI-H929/GN2; Homo sapiens, NCI-H929, NCI-H929/GN2, mono-culture, read-out: mono-culture EC50) was 62 nM and the EC50 (NCI-H929/GN2; NCI-H929/GN2, co-culture with osteoblasts, read-out: co-culture (+ OB) EC50) was 68 nM. The EC50 (NCI-H929/GN2; NCI-H929/GN2, mono-culture, read-out: mono-culture EC50) was 55 nM, the PARP cleavage (A375 melanoma cells [7]) was “specific induction of PARP cleavage” and the PARP cleavage (A375 melanoma cells [7]; listed as Otviciclib) was “induction of PARP cleavage”. The “cell cycle profile (DNA content)” value ([8]; LP1, 0.1 μM, 12 and 24 h (FIG. 1A)) was “cell cycle defects and a progressive enrichment of the sub G1 group”, the “cell cycle profile (DNA content)” value ([8]; LP1, 100 nM, 12 h) was “strong enrichment of nuclei in the sub_G1 fraction” and the “cell cycle profile (DNA content)” value ([8]; LP1, 100 nM, 24 h) was “almost all intact nuclei of LP1 cells disappeared”. For the same compound, the “kinase inhibitory selectivity: CDK13” value (CDK13) was “active as inhibitors”.
